Test results from paper PMC7179685, “Iminosugars With Endoplasmic Reticulum α-Glucosidase Inhibitor Activity Inhibit ZIKV Replication and Reverse Cytopathogenicity in vitro” (Frontiers in Microbiology, 2020).

Key:
CHME3 cells = assay: Cytotoxicity, MTS cell viability assay in CHME3 cells; type: cell-based, Human; details: 72 h post treatment
Procedure: (§1) A cell viability assay was used to evaluate both the cytotoxicity and antiviral abilities of the iminosugars with appropriate controls as previously described ([Fletcher et al., 2000]) using the CellTiter 96® AQueous One Solution Cell Proliferation Assay (MTS, Promega, Madison, WI, United States) following the manufacturer’s instructions. At 60–70% confluence, Vero cells and CHME3 cells were pretreated with iminosugars for 2 h and then infected with ZIKV according to the plate layout shown in Supplementary Figure S1. Four biological replicates were used to assess cytotoxicity, and six replicates were used to assess the antiviral ability of each iminosugar with concentrations ranging from 0.01 to 1000 μM or vehicle (sterile nuclease-free water). Cells treated with iminosugars or vehicle control were infected with ZIKV strain PRVABC59, IBH30656 or MEX 2-81 at a multiplicity of infection (MOI) of 1 in infection medium consisting of DMEM supplemented with 5% FBS and 1% antibiotic/antimycotic solution. The CHME3 infection medium was additionally supplemented with 0.1% non-essential amino acids (NEAA). At 72 h post-infection (hpi), MTS solution was added to the wells, and after 2 h, the optical density was measured at 490 nm using a microplate reader (ELx800; BioTek, Winooski, VT, United States). Previous studies have shown that ER α-glucosidase inhibitor, Celgosivir prevents DENV secretion in primary human macrophages with an EC50 of 5 μM and has CC50 greater than 1000 μM in MBDK cells ([Whitby et al., 2004]; [Sung et al., 2016]).

Vero cells = assay: Cytotoxicity, MTS cell viability assay in Vero cells; type: cell-based, African green monkey; details: 72 h post treatment
Procedure: as §1

DENV = system: DENV; parameters: method as in Whitby et al., 2004; Sung et al., 2016; details: primary human macrophages; ref Whitby et al., 2004; Sung et al., 2016; read-out: EC50, prevention of DENV secretion; cited from earlier work
[1] = system: activated caspases 3 and 7; assay: Measurement of apoptosis, Caspase-Glo 3/7 assay in ZIKV-infected CHME3 cells; type: cell-based, Human; details: PRVABC59, MOI 1, 0.01 to 1000 μM, 48 and 72 hpi
Procedure: Apoptotic cell death was evaluated by measuring the levels of active caspase 3 and 7 in cells using the Caspase-Glo® 3/7 Assay (Promega) following the manufacturer’s instructions. CHME3 cells in 96-well white-walled cell culture plates (Greiner Bio-One, Kremsmünster, Austria) were pre-treated with celgosivir for 2 h and then infected with PRVABC59 at MOI 1 in the presence of celgosivir at concentrations ranging from 0.01 to 1000 μM or vehicle. Controls for media color, cells, and virus were included. At 48 and 72 hpi, Caspase-Glo® Reagent was added, and after 30 min the luminescence of each sample was read five times using a Spark multimode microplate reader (TECAN, Männedorf, Switzerland) at an interval of 2 min for 15 s. The average of the five readings was used as the measurement for each biological replicate.

ZIKV PRVABC59 = assay: Virus yield reduction assay (qRT-PCR and TCID50) in Vero cells; type: cell-based, Zika virus; details: 1 μM, 48 hpi
Procedure: Zika virus yield reduction following treatment with iminosugars was assessed by measuring the NS1 gene by a previously described quantitative reverse transcription-polymerase chain reaction (qRT-PCR) and infectious virus titration in Vero cells ([Reed and Muench, 1938]; [Goebel et al., 2016]). Vero and CHME3 cells pre-treated 1 μM of castanospermine, celgosivir or DNJ for 2 h and then were infected with PRVABC59 either at MOI 0.5 or 5 in infection medium. After 2 h of incubation with the virus, medium from cells was removed, cells were washed with phosphate buffered saline, and fresh infection medium containing 1 μM of castanospermine, celgosivir or DNJ was added to the wells. At 48 and 72 hpi, culture supernatants were harvested and stored at −80°C until use for viral RNA extraction. Viral RNA was extracted from 50 μl of sample using the MagMAX-96 Viral RNA Isolation Kit (Applied Biosystems, Foster City, CA, United States) on a MagMAX Express-96 Deep Well Magnetic Particle Processor (Applied Biosystems). The amount of ZIKV genomic RNA was measured by qRT-PCR using SuperScript® III Platinum One-Step qRT-PCR Kit on a 7500 Fast Real-Time PCR System (Applied Biosystems). The primers (F: 5′-[…]-3′, R: 5′-[…]-3′) and probe sequence (5′- FAM-TGCCCAACA/ZEN/CAAGGTGAAGCC TACCT-BHQ) were purchased from Integrated DNA Technologies (IDT; Coralville, IA, United States), and the qRT-PCR cycling conditions included an initial cDNA synthesis for 30 min at 50°C, followed by 2 min at 95°C and 45 cycles of 2-step cycling at 95°C for 15 s, then 55°C for 30 s ([Goebel et al., 2016]). The ZIKV copy numbers were quantified using a standard curve generated with serial dilutions of positive control ZIKV RNA standards derived from ZIKV with known TCID50 value. Cell culture supernatants were titrated for the infectious virus in Vero cells, and titer was expressed as TCID50 calculated using the Reed-Muench method ([Reed and Muench, 1938]).

ZIKV strain PRVABC59 = assay: Antiviral screening assay (MTS cell viability after infection) in Vero cells; type: cell-based, Zika virus
Procedure: as §1

dengue virus (DENV) = system: dengue virus (DENV); parameters: method as in Rathore et al., 2011; details: BHK-21 cells; MOI 0.3; ref Rathore et al., 2011; cited from earlier work

CCCC(=O)O[C@H]1CN2CC[C@H](O)[C@@H]2[C@@H](O)[C@@H]1O [celgosivir, 6-O-butanoyl castanospermine]
metabolic activity (cytotoxicity, MTS) (CHME3 cells; 1000 μM): decrease in metabolic activity
metabolic activity compared to vehicle control (cytotoxicity, MTS) (CHME3 cells; 0.01 to 100 μM): No reduction in metabolic activity
metabolic activity (cytotoxicity, MTS) (Vero cells; 1000 μM): decrease in metabolic activity
metabolic activity compared to vehicle control (cytotoxicity, MTS) (Vero cells; 0.01 to 100 μM): No reduction in metabolic activity
EC50 (DENV): 5 µM
levels of activated caspases 3 and 7 in comparison to untreated infected cells [1]: did not significantly reduce
PRVABC59 ZIKV RNA in supernatant compared with vehicle control (qRT-PCR) (ZIKV PRVABC59; MOI 0.5 and MOI 5, p ≤ 0.0318): Significant reductions
infectious PRVABC59 ZIKV titers (TCID50) (ZIKV PRVABC59; MOI 0.5 and MOI 5, p ≤ 0.0433): statistically significant reduction
ZIKV-induced cell death (MTS) (ZIKV strain PRVABC59; Vero cells, PRVABC59, MOI 1, 72 hpi): reduce ZIKV-induced cell death
viability at 0.01 µM (ZIKV strain PRVABC59; Zika virus, Vero, read-out: cell viability following ZIKV infection): > 90%
effectiveness against DENV relative to castanospermine (dengue virus (DENV)): 100 times
